# Values quoted from earlier work, collected in patent US20160000716A1, “METHOD OF TREATING VITAMIN B12 DEFICIENCY” (Pharmaceutical Productions Inc., priority 2013, published 2016).
# Conditions: over a wide dosing range, independent of the presence of intrinsic factor
substance,measurement,value
Vitamin B-12,Fraction of oral Vitamin B-12 absorbed,approximately 1.2%
